According to patent US20240342292A1, “Compounds for the Degradation of EGFR Kinase” (BeiGene Switzerland GmbH, priority 2021, published 2024):

What was measured:
L858R/T790M/C797S EGFR = biological target: T1, L858R/T790M/C797S EGFR (Homo sapiens, UniProt P00533, C797S/L858R/T790M); assay: EGFR degradation HTRF assay in H1975-clone #25 (LTC) cells; format: cell-based; conditions: 16h treatment; for DC50: H1975 # 25-LTC (L858R/T790M/C797S), HTRF; for Dmax: NCI-H1975, H1975 # 25-LTC (L858R/T790M/C797S), maximum percentage of degradation
T1 construct: expressed in transfected cells; host or cells: H1975 clone #25 (lentiviral over-expression, endogenous EGFR knocked out by sgRNA)
T1 sequence (P00533 25-1210 T790M/C797S/L858R): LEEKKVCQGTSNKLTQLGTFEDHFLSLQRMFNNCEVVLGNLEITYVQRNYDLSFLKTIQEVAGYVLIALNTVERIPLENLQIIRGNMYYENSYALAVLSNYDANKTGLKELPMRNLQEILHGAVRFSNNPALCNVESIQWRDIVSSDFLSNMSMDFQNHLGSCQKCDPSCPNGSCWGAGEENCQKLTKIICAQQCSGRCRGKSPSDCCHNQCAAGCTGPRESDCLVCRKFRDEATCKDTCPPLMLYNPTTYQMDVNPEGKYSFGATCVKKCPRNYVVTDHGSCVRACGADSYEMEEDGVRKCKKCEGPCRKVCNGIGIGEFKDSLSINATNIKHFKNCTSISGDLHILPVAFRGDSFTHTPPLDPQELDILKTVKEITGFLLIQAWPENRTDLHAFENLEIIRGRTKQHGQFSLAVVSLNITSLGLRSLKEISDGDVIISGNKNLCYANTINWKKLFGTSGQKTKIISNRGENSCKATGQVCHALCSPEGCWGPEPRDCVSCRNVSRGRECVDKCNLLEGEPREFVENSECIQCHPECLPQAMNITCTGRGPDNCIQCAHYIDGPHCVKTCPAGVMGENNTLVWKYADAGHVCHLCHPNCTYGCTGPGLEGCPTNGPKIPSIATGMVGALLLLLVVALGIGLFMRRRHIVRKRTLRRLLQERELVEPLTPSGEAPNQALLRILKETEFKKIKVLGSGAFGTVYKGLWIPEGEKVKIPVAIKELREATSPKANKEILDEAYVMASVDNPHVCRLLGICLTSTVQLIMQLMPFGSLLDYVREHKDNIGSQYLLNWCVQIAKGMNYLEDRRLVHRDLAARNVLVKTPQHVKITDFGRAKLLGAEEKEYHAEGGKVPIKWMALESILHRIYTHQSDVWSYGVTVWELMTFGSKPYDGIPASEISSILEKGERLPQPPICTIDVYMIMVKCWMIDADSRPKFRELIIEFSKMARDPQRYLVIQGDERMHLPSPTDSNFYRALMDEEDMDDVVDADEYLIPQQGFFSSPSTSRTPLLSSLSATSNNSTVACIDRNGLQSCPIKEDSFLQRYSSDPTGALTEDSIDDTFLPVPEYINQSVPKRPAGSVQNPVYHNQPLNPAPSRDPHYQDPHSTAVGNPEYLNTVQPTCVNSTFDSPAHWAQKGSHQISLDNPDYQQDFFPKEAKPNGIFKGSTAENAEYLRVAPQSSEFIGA
Text: (§1) H1975-clone #28(Del19/T790M/C797S, or abbr: DTC), H1975-clone #23(Del19/C797S, or abbr: DC), H1975-clone #25(L858R/T790M/C797S, or abbr: LTC) and H1975-clone #8 (L858R/C797S, or abbr: LC). EGFR-Del19:T790M/C797S, EGFR-Del19/C797S, EGFR-L858R/T790M/C797S and EGFR-L858R/C797S were stably expressed in H1975 cell lines by lentivirus-mediated over-expression, respectively. The EGFR over-expressed cells then underwent knockout, in which the EGFR targeting sgRNA was designed to only target the endogenous EGFR copies and preserve the exogenous EGFR copies. Followed by the knockout, the edited H1975 cells were seeded in 96 well plates at the concentration of […], cultured for about 2 weeks to allow single clones formation. The formed clones were screened by DNA sequencing and whole exon sequencing analysis for the desired edition. H1975-clone #28, H1975-clone #23, H1975-clone #25 and H1975-clone #8 were finally confirmed as homozygous Del19/T790M/C797S EGFR, Dell9/C797S EGFR, L858R/T790M/C797S EGFR and L858R/C797S EGFR clones, respectively.
(§2) H1975-#25, H1975-#28, H1975-#23 and H1975-#8 cells are treated with compounds diluted in 0.2% DMSO cell culture medium on day 2, incubate for 16h, 37° C., 5% CO2. the final concentration of compounds in all assay is start with 10 uM, 5-fold dilution, total 8 doses were included.
(§3) After 16h treatment, add HTRF lysis buffer to each well; seal the plate and incubate 1 hour at room temperature on a plate shaker; Once the cells are lysed, 16 μL of cell lysate are transferred to a PE 384-well HTRF detection plate; 4 μL of pre-mixed HTRF antibodies are added to each well; Cover the plate with a plate sealer, spin 1000 rpm for 1 min, Incubate overnight at room temperature; Read on BMG PheraStar with HTRF protocol (337 nm-665 nm-620 nm).
(§4) The IC50 (DC50) value of a compound can be obtained by fitting the following equation
(§5) Y=Bottom+(TOP−Bottom)/(1+((IC50/X)^hillslope))
(§6) Wherein, X and Y are known values, and IC50, Hillslope, Top and Bottom are the parameters obtained by fitting with software. Y is the inhibition percentage (calculated from the equation), X is the concentration of the compound: IC50 is the concentration of the compound when the 50% inhibition is reached. The smaller the IC50 value is, the stronger the inhibitory ability of the compound is. Vice versa, the higher the IC50 value is, the weaker the ability the inhibitory ability of the compound is: Hillslope represents the slope of the fitted curve, generally around 1*; Bottom represents the minimum value of the curve obtained by data fitting, which is generally 0%±20%; Top represents the maximum value of the curve obtained by data fitting, which is generally 100%±20%. The experimental data were fitted by calculating and analyzing with Dotmatics data analysis software.

Del19/T790M/C797S EGFR = assay: EGFR degradation HTRF assay in H1975-clone #28 (DTC) cells; format: cell-based; conditions: H1975 # 28 DTC (Del19/T790M/C797S), 16h treatment; for DC50: HTRF; for Dmax (%): maximum percentage of degradation
Text: as §1, §2, §3, §4, §5, §6

DC50 (L858R/T790M/C797S EGFR) | Dmax (L858R/T790M/C797S EGFR) | DC50 (Del19/T790M/C797S EGFR) | Compound | Dmax (%) (Del19/T790M/C797S EGFR)
0.6 nM | 88.6% | 0.7 nM | Cc1cc2cc(n1)-c1cnn(C)c1OCCC[C@@H](C)CN1/C(=N/C2=O)Nc2ccc(CN3C[C@@H]4C[C@H]3CN4C(=O)[C@@H]3CCN(c4cc(F)c([C@H]5CCC(=O)NC5=O)c(F)c4)C3)cc21 [Example 82, (R)-3-(2,6-difluoro-4-((R)-3-((1S,4S)-5-(((R,E)-1^1,2^6,7-trimethyl-3-oxo-5^2,5^3-dihydro-1^1H,5^1H-11-oxa-4-aza-5(2,1)-benzo[d]imidazola-2(2,4)-pyridina-1(4,5)-pyrazolacycloundecaphane-5^6-yl)methyl)-2,5-diazabicyclo[2.2.1]heptane-2-carbonyl)pyrrolidin-1-yl)phenyl)piperidine-2,6-dione] | 78.4%
2.9 nM | 92.7% | 0.8 nM | Cc1cc2cc(n1)-c1cnn(C)c1OCCC[C@@H](C)CN1/C(=N/C2=O)Nc2ccc(CN3CC4(CCN(C(=O)[C@@H]5CCN(c6cc(F)c([C@H]7CCC(=O)NC7=O)c(F)c6)C5)CC4)C3)cc21 [Example 84, (R)-3-(2,6-difluoro-4-((R)-3-(2-(((R,E)-1^1,2^6,7-trimethyl-3-oxo-5^2,5^3-dihydro-1^1H,5^1H-11-oxa-4-aza-5(2,1)-benzo[d]imidazola-2(2,4)-pyridina-1(4,5)-pyrazolacycloundecaphane-5^6-yl)methyl)-2,7-diazaspiro[3.5]nonane-7-carbonyl)pyrrolidin-1-yl)phenyl)piperidine-2,6-dione] | 86.1%
0.5 nM | 90.6% | 0.7 nM | Cc1cc2cc(n1)-c1cnn(C)c1OCCC[C@@H](C)CN1/C(=N/C2=O)Nc2ccc(CN3CCN(C(=O)C4CN(c5ccc(F)c6c5n(C)c(=O)n6C5CCC(=O)NC5=O)C4)CC3)cc21 (stereo partly drawn) [Example 94, 3-(7-fluoro-3-methyl-2-oxo-4-(3-(4-(((R,E)-1^1,2^6,7-trimethyl-3-oxo-5^2,5^3-dihydro-1^1H,5^1H-11-oxa-4-aza-5(2,1)-benzo[d]imidazola-2(2,4)-pyridina-1(4,5)-pyrazolacycloundecaphane-5^6-yl)methyl)piperazine-1-carbonyl)azetidin-1-yl)-2,3-dihydro-1H-benzo[d]imidazol-1-yl)piperidine-2,6-dione] | 80.5%
0.6 nM | 87.8% | 0.4 nM | Cc1cc2cc(n1)-c1cnn(C)c1OCCC[C@@H](C)CN1/C(=N/C2=O)Nc2ccc(C(=O)N3CCN(C(=O)[C@@H]4CCN(c5cc(F)c([C@H]6CCC(=O)NC6=O)c(F)c5)C4)CC3)cc21 [Example 96, (R)-3-(2,6-difluoro-4-((R)-3-(4-((R,E)-1^1,2^6,7-trimethyl-3-oxo-5^2,5^3-dihydro-1^1H,5^1H-11-oxa-4-aza-5(2,1)-benzo[d]imidazola-2(2,4)-pyridina-1(4,5)-pyrazolacycloundecaphane-5^6-carbonyl)piperazine-1-carbonyl)pyrrolidin-1-yl)phenyl)piperidine-2,6-dione] | 84.3%
1.4 nM | 82.7% | 0.7 nM | Cc1cc2cc(n1)-c1cnn(C)c1OCCC[C@@H](C)CN1/C(=N/C2=O)Nc2ccc(CN3CCN(C(=O)[C@@H]4CCN(c5cc(F)c([C@H]6CCC(=O)NC6=O)c(F)c5)C4)C[C@@H]3C)cc21 [Example 99] | 75.6%
1 nM | 85.5% | 0.7 nM | Cc1cc2cc(n1)-c1cnn(C)c1OCCC[C@@H](C)CN1/C(=N/C2=O)Nc2ccc(CN3CCN(C(=O)[C@@H]4CCN(c5cc(F)c([C@H]6CCC(=O)NC6=O)c(F)c5)C4)C[C@H]3C)cc21 [Example 100, (R)-3-(2,6-difluoro-4-((R)-3-((R)-3-methyl-4-(((R,E)-1^1,2^6,7-trimethyl-3-oxo-5^2,5^3-dihydro-1^1H,5^1H -11-oxa-4-aza-5(2,1)-benzo[d]imidazola-2(2,4)-pyridina-(4,5)-pyrazolacycloundecaphane-5^6-yl)methyl)piperazine-1-carbonyl)pyrrolidin-1-yl)phenyl)piperidine-2,6-dione] | 72.8%
1.7 nM | 79.1% | 1.2 nM | Cc1cc2cc(n1)-c1cnn(C)c1OCCC[C@@H](C)CN1/C(=N/C2=O)Nc2ccc(CN3CCN(C(=O)[C@@H]4CCN(c5cc(F)c(C6CCC(=O)NC6=O)c(F)c5)C4)[C@H](C)C3)cc21 (stereo partly drawn) [Example 106, (R)-3-(2,6-difluoro-4-((R)-3-((R)-2-methyl-4-(((R,E)-1^1,2^6m7-trimethyl-3-oxo-5^2,5^3-dihydro-1^1H,5^1H -11-oxa-4-aza-5(2,1)-benzo[d]imidazola-2(2,4)-pyridina-1(4,5)-pyrazolacycloundecaphane-5^6-yl)methyl)piperazine-1-carbonyl)pyrrolidin-1-yl)phenyl)piperidine-2,6-dione] | 74.4%
0.761 nM | 80.8% | 0.508 nM | Cc1cc2cc(n1)-c1cnn(C)c1OCCCCCN1/C(=N/C2=O)Nc2ccc(CN3CCN(CCc4cc(F)c([C@H]5CCC(=O)NC5=O)c(F)c4)CC3)cc21 [Example 144, (R,E)-3-(4-(2-(4-((1^1,2^6-dimethyl-3-oxo-5^2,5^3-dihydro-1^1H,5^1H-11-oxa-4-aza-5(2,1)-benzo[d]imidazola-2(2,4)-pyridina-1(4,5)-pyrazolacycloundecaphane-5^6-yl)methyl)piperazin-1-yl)ethyl)-2,6-difluorophenyl)piperidine-2,6-dione] | 55.85%
1.83 nM | 81.4% | 2.41 nM | Cc1cc2cc(n1)-c1cnn(C)c1OCCC[C@@H](C)CN1/C(=N/C2=O)Nc2cc(C)c(CN3CCN(CC4CN(c5cc(F)c([C@H]6CCC(=O)NC6=O)c(F)c5)C4)CC3)cc21 [Example 147, (R)-3-(2,6-difluoro-4-(3-((4-(((R,E)-1^1,2^6,5,7-tetramethyl-3-oxo-5^2,5′-dihydro-1^1H,5^1H-11-oxa-4-aza-5(2,1)-benzo[d]imidazola-2(2,4)-pyridina-(4,5)-pyrazolacycloundecaphane-5^6-yl)methyl)piperazin-1-yl)methyl)azetidin-1-yl)phenyl)piperidine-2,6-dione] | 69.47%
1.89 nM | 78.7% | 3.09 nM | Cc1cc2cc(n1)-c1cnn(C)c1OCCC[C@@H](C)CN1/C(=N/C2=O)Nc2ccc(CN3CCN(CC4CN(c5cc(F)c([C@H]6CCC(=O)NC6=O)c(F)c5)C4)CC3)c(C)c21 [Example 148, (R)-3-(2,6-difluoro-4-(3-((4-(((R,E)-1^1,2^6,5^7,7-tetramethyl-3-oxo-5^2,5^3-dihydro-1^1H,5^1H-11-oxa-4-aza-5(2,1)-benzo[d]imidazola-2(2,4)-pyridina-1(4,5)-pyrazolacycloundecaphane-5^6-yl)methyl)piperazin-1-yl)methyl)azetidin-1-yl)phenyl)piperidine-2,6-dione] | 70.93%

Compound | DC50 (L858R/T790M/C797S EGFR) | Dmax (L858R/T790M/C797S EGFR) | DC50 (Del19/T790M/C797S EGFR) | Dmax (%) (Del19/T790M/C797S EGFR)
Cc1cc2cc(n1)-c1cnn(C)c1OCCC[C@@H](C)CN1/C(=N/C2=O)Nc2ccc(CN3CC4CCC(C3)N4C(=O)[C@@H]3CCN(c4cc(F)c([C@H]5CCC(=O)NC5=O)c(F)c4)C3)cc21 [Example 83, (3R)-3-(2,6-difluoro-4-((3R)-3-(3-(((R,E)-1^1,2^6,7-trimethyl-3-oxo-5^2,5^3-dihydro-1^1H,5^1H-11-oxa-4-aza-5(2,1)-benzo[d]imidazola-2(2,4)-pyridina-1(4,5)-pyrazolacycloundecaphane-5^6-yl)methyl)-3,8-diazabicyclo[3.2.1]octane-8-carbonyl)pyrrolidin-1-yl)phenyl)piperidine-2,6-dione] | 2 nM | 82.5% | 2 nM | 73.0%
